Measurements reported in patent US8642630B2, “Endogeneous repair factor production accelerators” (Ono Pharmaceutical Co., Ltd., priority 2002, dated 2014).

Tests used:
[1] = system: normal human umbilical cord vein vascular endothelial cells and normal human skin fibroblasts; experiment: Measurement of angiogenesis acceleration action (in vitro), hollow organ formation, Example 1; format: cell-based; details: 10 ng/ml; 10 days of culturing; FIG. 1
Procedure: An angiogenesis kit (manufactured by Kurabo; constituted from normal human umbilical cord vein vascular endothelial cells and normal human skin fibroblasts) was cultured for 3 hours, and then the culture medium (the medium for angiogenesis use attached to the angiogenesis kit was used as the culture medium and cultured at 37° C. under a moist environment of 5% carbon dioxide-95% air, and a carbon dioxide incubator BNA-121D was used as the incubator) was changed and an agent to be tested was added to each well (0.5 ml/well). The medium exchange was carried out also on the 3rd, 6th and 8th days after commencement of the culturing and the fresh agent to be tested was added. The kind and concentration of the agent to be tested were untreated, solvent (DMSO) 0.1%, Compound 1 10^−9, 10^−8 and 10^−7 mol/l, VEGF-A 0.1, 1 and 10 ng/ml and HGF 0.1, 1 and 10 ng/ml, and the culturing was carried out by using 3 wells for each concentration. Fixation was carried out 10 days after the commencement of culturing, and staining of hollow organ with anti-CD31 antibody was carried out by using a hollow organ staining kit (manufactured by Kurabo). As the evaluation, Chalkley Grid (a grid lens, manufactured by Kurabo) was mounted on the eyepiece of a microscope, and the hollow organ formation was evaluated by counting intersections of the randomly arrange points of Chalkley Grid with the formed hollow organ (by referring to the evaluation method of J. Pathol., 177, 275-283 (1995)). The counting was carried out at 12 positions per well, and the total was calculated.
As the agent to be tested, Compound 1 ((E)-[5-[2-[1-phenyl-1-(3-pyridyl)methylideneaminoxy]ethyl]-7,8-dihydronaphthalen-1-yloxy]acetic acid) was dissolved in dimethyl sulfoxide (DMSO) to prepare 10^−4, 10^−5 and 10^−6 mol/l solutions which were then used by diluting 1/1000 time with the culture medium.
As the VEGF-A (vascular endothelial growth factor-A), the 2 μg/ml solution of VEGF contained in the angiogenesis control reagent kit of Kurabo was diluted with the culture medium and used. […]

[2] = system: normal human umbilical cord vein vascular endothelial cells and normal human skin fibroblasts; experiment: Measurement of angiogenesis acceleration action (in vitro), hollow organ formation, Example 9; format: cell-based; details: 10 days of culturing, FIG. 5
Procedure: An angiogenesis kit (manufactured by Kurabo; constituted from normal human umbilical cord vein vascular endothelial cells and normal human skin fibroblasts) was cultured for 3 hours, and then the culture medium (the medium for angiogenesis use attached to the angiogenesis kit was used as the culture medium and cultured at 37° C. under a moist environment of 5% carbon dioxide-95% air, and a carbon dioxide incubator BNA-121D was used as the incubator) was changed and an agent to be tested was added to each well (0.5 ml/well). The medium exchange was carried out also on the 3rd, 6th and 8th days after commencement of the culturing and the fresh agent to be tested was added. The kind and concentration of the agent to be tested were untreated; DMSO: 0.1%; α-CD: 0.0118, 0.118 and 1.18 mg/ml; PGE2-αCD: 1, 10 and 100 nmol/l; Compound 3 (EP2 agonist), Compound 4 (EP4 agonist), EP1 agonist and EP3 agonist: 1, 10 and 100 nmol/l, VEGF: 0.1, 1 and 10 ng/ml; and HGF: 0.1, 1 and 10 ng/ml, and culturing was carried out by using 3 wells for each concentration. Fixation was carried out 10 days after the commencement of culturing, and staining of hollow organ with anti-CD31 antibody was carried out by using a hollow organ staining kit (manufactured by Kurabo). As the evaluation, Chalkley Grid (a grid lens, Kurabo) was mounted on the eyepiece of a microscope, and the hollow organ formation was evaluated by counting intersections of the randomly arrange points of Chalkley Grid with the formed hollow organ (by referring to the evaluation method of J. Pathol., 177, 275-283 (1995)). The counting was carried out at 12 positions per well, and the total was calculated.
In this connection, Compound 3 as an EP2 agonist ((5Z,9β,11α,13E)-17,17-propano-11,16-dihydroxy-9-chloro-20-norprost-5,13-dienoic acid) was dissolved in dimethyl sulfoxide (DMSO) to prepare 10^−4, 10^−5 and 10^−6 mol/l solutions which were then used by diluting 1/1000 time with the culture medium.
Compound 4 as an EP4 agonist ((11α,13E,15α)-9-oxo-11,15-dihydroxy-16-(3-methoxymethylphenyl)-17,18,19,20-tetranor-5-thiaprost-13-enoic acid) was dissolved in dimethyl sulfoxide (DMSO) to prepare 10^−4, 10^−5 and 10^−6 mol/l solutions which were then used by diluting 1/1000 time with the culture medium.
The EP1 agonist ((13E)-(11α,15S,17S)-2,5-ethano-6,9-dioxo-11,15-dihydroxy-17,20-dimethylprost-13-enoic acid; the compound described in Example 1 in the specification of JP-A-11-322709) was dissolved in dimethyl sulfoxide (DMSO) to prepare 10^−4, 10^−5 and 10^−6 mol/l solutions which were then used by diluting 1/1000 time with the culture medium.
The EP3 agonist (11α,15α-dimethoxy-9-oxoprost-5Z,13E-dienoic acid; the compound described in Example 1 in the specification of WO98/34916) was dissolved in dimethyl sulfoxide (DMSO) to prepare 10^−4, 10^−5 and 10^−6 mol/l solutions which were then used by diluting 1/1000 time with the culture medium.
The PGE2-αCD was dissolved in distilled water for injection to prepare 10^−4, 10^−5 and 10^−6 mol/l solutions which were then used by diluting 1/1000 time with the culture medium.
As the VEGF (vascular endothelial growth factor), the 2 μg/ml solution of VEGF contained in the angiogenesis control reagent kit of Kurabo was diluted with the culture medium and used.
As the HGF (human hepatocyte growth factor), the 5 μg/ml solution of HGF purchased from R & D System-Funakoshi was diluted with the culture medium and used.
The counts of hollow organ formation in the untreated wells were compared with those of the wells treated with respective concentrations of test samples by Dunnett's test (two-sided test). The significance level was set to 5%.
(§1) In this connection, the data were shown by average value of 3 wells and standard deviation.

[3] = system: HGF; experiment: Endogenous repair factor releasing action (in vitro), HGF by ELISA, Example 10; format: cell-based, human; details: 100 nmol/l; for HGF concentration in culture supernatant: after 72 hours of culturing, average of 3 wells ± SD; for HGF concentration in supernatants, in words: vs untreated, Dunnett's test
Procedure: (§2) An angiogenesis kit (manufactured by Kurabo; constituted from normal human umbilical cord vein vascular endothelial cells and normal human skin fibroblasts) was cultured for 3 hours, and then the culture medium (the medium for angiogenesis use attached to the angiogenesis kit was used as the culture medium and cultured at 37° C. under a moist environment of 5% carbon dioxide-95% air, and a carbon dioxide incubator BNA-121D was used as the incubator) was changed and an agent to be tested was added to each well (0.5 ml/well). HGF and VEGF concentrations in the culture supernatants were measured 3 days after the commencement of the culturing. Kinds and concentrations of the agent to be tested were untreated; DMSO: 0.1%; PGE1-αCD: 100 nmol/l; PGE2-αCD: 100 nmol/l; and Compound 3 (EP2 agonist) and Compound 4 (EP4 agonist): 100 nmol/l, and the culturing was carried out by using 3 wells for each concentration. The HGF and VEGF concentrations were measured by using an ELISA kit (R % D system-Funakoshi).
(§3) In this connection, Compound 3 as an EP2 agonist ((5Z,9β,11α,13E)-17,17-propano-11,16-dihydroxy-9-chloro-20-norprost-5,13-dienoic acid) was dissolved in dimethyl sulfoxide (DMSO) to prepare a 10^−4 mol/l solution which was then used by diluting 1/1000 time with the culture medium.
(§4) Compound 4 as an EP4 agonist ((11α,13E,15α)-9-oxo-11,15-dihydroxy-16-(3-methoxymethylphenyl)-17,18,19,20-tetranor-5-thiaprost-13-enoic acid) was dissolved in dimethyl sulfoxide (DMSO) to prepare a […] solution which was then used by diluting 1/1000 time with the culture medium.
(§5) The PGE1-αCD and PGE2-αCD were dissolved in distilled water for injection to prepare 10^−4 mol/l solutions which were then used by diluting 1/1000 time with the culture medium.
(§6) HGF and VEGF concentrations in the supernatants of the solvent control group were compared with those of the agent-treated groups by Dunnett's test (two-sided test). The significance level was set to 5%.
as §1

[4] = system: VEGF; experiment: Endogenous repair factor releasing action (in vitro), VEGF by ELISA, Example 10; format: cell-based, human; details: 100 nmol/l; for VEGF concentration in culture supernatant: after 72 hours of culturing, average of 3 wells ± SD; for VEGF concentration in supernatants, in words: vs untreated, Dunnett's test
Procedure: as §2, §3, §4, §5, §6, §1

[5] = system: mouse sponge transplantation model; experiment: Angiogenesis test using mouse sponge transplantation model, Example 8; format: in vivo; details: 14 days of repeated administration
Procedure: Under anesthesia, dorsal part of a mouse was incised and a discus urethane sponge (about 5 mm in thickness and 13 mm in diameter) was embedded therein. Administration of the agent was carried out by topically administering it directly into the sponge once a day for a total of 14 times starting on the day of the sponge transplantation model preparation, or on the operation-completed day and 7th day thereafter. On the 15th day after the sponge transplantation, the sponge containing granulation tissue was extracted and observed with the naked eye, and then its wet mass was measured. In addition, this was mixed with distilled water of 4 times larger amount than the wet mass, homogenized and centrifuged, and then the supernatant was subjected to the measurement of the hemoglobin content using Hemoglobin 13-Test Wako (manufactured by Wako Pure Chemical Industries).
• The polylactic acid-glycolic acid copolymer used in Preparation Example 2 was suspended in 0.2 w/v % Tween 80 solution (0.05 ml). In this connection, amount of the polylactic acid-glycolic acid copolymer is identical to the amount contained in Compound 1 MS (200 μg). Compound 1 (20 μg) Group: • Compound 1 (20 μg) was suspended in 0.2 w/v % Tween 80 solution (0.05 ml). Compound 1 (40 μg) Group:
Compound 1 (40 μg) was suspended in 0.2 w/v % Tween 80 solution (0.05 ml).
• Compound 1 (200 μg) was suspended in 0.2 w/v % Tween 80 solution (0.05 ml). Compound 1 MS (200 μg) group: • The microsphere preparation produced in Preparation Example 2 containing […] of Compound 1 was suspended in 0.2 w/v % Tween 80 solution (0.05 ml). Compound 1 MS (400 μg) Group: • The microsphere preparation produced in Preparation Example 2 containing 400 μg of Compound 1 was suspended in 0.2 w/v % Tween 80 solution (0.05 ml). Compound 3 (20 μg) Group: • Compound 3 (20 μg) was suspended in 0.2 w/v % Tween 80 solution (0.05 ml).

[6] = 10 nmol/l and 100 nmol/l, vs untreated wells, Dunnett's test
[7] = 20 μg into the sponge once a day, 15th day

Row | Compound | hollow organ formation (Chalkley Grid count), in words ([2]; 1, 10 and 100 nmol/l) | hollow organ formation (Chalkley Grid count), in words [2, 6] | HGF concentration in culture supernatant [3] | HGF concentration in supernatants, in words [3] | VEGF concentration in culture supernatant [4] | VEGF concentration in supernatants, in words [4] | also measured
1 | HGF: human hepatocyte growth factor purchased from R & D System-Funakoshi; positive control agent | – | – | – | – | – | – | hollow organ formation (Chalkley Grid count), in words [1]: accelerated hollow organ formation; hollow organ formation (Chalkley Grid count), in words ([2]; 10 ng/ml): accelerated hollow organ formation
2 | OC[C@H]1O[C@@H]2O[C@H]3[C@H](O)[C@@H](O)[C@@H](O[C@H]4[C@H](O)[C@@H](O)[C@@H](O[C@H]5[C@H](O)[C@@H](O)[C@@H](O[C@H]6[C@H](O)[C@@H](O)[C@@H](O[C@H]7[C@H](O)[C@@H](O)[C@@H](O[C@H]1[C@H](O)[C@H]2O)O[C@@H]7CO)O[C@@H]6CO)O[C@@H]5CO)O[C@@H]4CO)O[C@@H]3CO [α-CD] | – | – | – | – | – | – | hollow organ formation (Chalkley Grid count), in words ([2]; 0.0118, 0.118 and 1.18 mg/ml): did not exert influence upon hollow organ formation
3 | CCCC[C@H](C)C[C@H](O)/C=C/[C@H]1[C@H](O)CC(=O)[C@@H]1CC(=O)C1CCC(C(=O)O)CC1 (stereo partly drawn) [EP1 agonist, (13E)-(11α,15S,17S)-2,5-ethano-6,9-dioxo-11,15-dihydroxy-17,20-dimethylprost-13-enoic acid, reference compound] | did not exert influence upon hollow organ formation | – | – | – | – | – | –
4 | COCc1cccc(C[C@H](O)/C=C/[C@H]2[C@H](O)CC(=O)[C@@H]2CCSCCCC(=O)O)c1 [Compound 4, (11α,13E,15α)-9-oxo-11,15-dihydroxy-16-(3-methoxymethylphenyl)-17,18,19,20-tetranor-5-thiaprost-13-enoic acid] | – | significantly accelerated hollow organ formation | 379 ± 12 pg/mL | significantly increased HGF and VEGF concentrations | 2936 ± 69 pg/mL | significantly increased HGF and VEGF concentrations | –
5 | CCCCC[C@@H](/C=C/[C@H]1[C@H](OC)CC(=O)[C@@H]1C/C=C\CCCC(=O)O)OC [EP3 agonist, 11α,15α-dimethoxy-9-oxoprost-5Z,13E-dienoic acid, reference compound] | did not exert influence upon hollow organ formation | – | – | – | – | – | –
6 | CCC1(C(O)C/C=C/[C@@H]2[C@@H](C/C=C\CCCC(=O)O)[C@H](Cl)C[C@H]2O)CCC1 (stereo partly drawn) [Compound 3, (5Z,9β,11α,13E)-17,17-propano-11,16-dihydroxy-9-chloro-20-norprost-5,13-dienoic acid] | – | significantly accelerated hollow organ formation | 1865 ± 48 pg/mL | significantly increased HGF and VEGF concentrations | 2762 ± 51 pg/mL | significantly increased HGF and VEGF concentrations | Hemoglobin content [5, 7]: 4.588 ± 0.488 mg/g wet tissue; Sponge wet weight [5, 7]: 0.5193 ± 0.0792 g; formation of granulation in the sponge, in words ([5]; 20 μg): formation of granulation was found; hemoglobin concentration in the granulation tissue, in words ([5]; 20 μg, vs polymer group): significant increase in the concentration of hemoglobin
